Data published in ChEMBL document CHEMBL4477264, “Amino acid amides of piperic acid (PA) and 4-ethylpiperic acid (EPA) as NorA efflux pump inhibitors of Staphylococcus aureus” (2016).
Calls of active or inactive are those of the source. The calls are words filed in the database; no cut-off is given here.

Legend:
[1] = biological target: T1, Quinolone resistance protein NorA (Staphylococcus aureus) (UniProt P0A0J7); test: Inhibition of NorA efflux pump overexpressed in Staphylococcus aureus 1199B assessed as fold reduction in ciprofloxacin MIC at 12.5 ug/ml measured after 24 hrs by broth checkerboard method
T1 sequence (whole entry): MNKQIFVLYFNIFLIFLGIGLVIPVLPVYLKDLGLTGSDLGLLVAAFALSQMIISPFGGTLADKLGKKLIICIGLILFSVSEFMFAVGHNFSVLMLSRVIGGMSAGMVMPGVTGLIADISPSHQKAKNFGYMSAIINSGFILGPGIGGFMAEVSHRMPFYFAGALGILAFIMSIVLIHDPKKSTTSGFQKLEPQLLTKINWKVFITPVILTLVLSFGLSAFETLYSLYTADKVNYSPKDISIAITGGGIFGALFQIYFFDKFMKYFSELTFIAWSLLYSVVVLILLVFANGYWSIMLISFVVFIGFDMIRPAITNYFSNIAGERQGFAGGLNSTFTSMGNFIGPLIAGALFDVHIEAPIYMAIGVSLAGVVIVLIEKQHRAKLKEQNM

[2] = biological target: T1, Quinolone resistance protein NorA (Staphylococcus aureus); test: Inhibition of NorA efflux pump overexpressed in Staphylococcus aureus 1199B assessed as concentration required for four-fold reduction in ciprofloxacin MIC measured after 24 hrs by broth checkerboard method relative to control
[3] = system: Staphylococcus aureus; test: Antibacterial activity against Staphylococcus aureus 1199B overexpressing NorA efflux pump measured after 24 hrs by broth checkerboard method; format: functional
[4] = biological target: T1, Quinolone resistance protein NorA (Staphylococcus aureus); test: Inhibition of NorA efflux pump in Staphylococcus aureus 1199 assessed as concentration required for four-fold reduction in ethidium bromide MIC measured at every 3 mins interval for 30 mins by fluorescence analysis
[5] = biological target: T1, Quinolone resistance protein NorA (Staphylococcus aureus); test: Inhibition of NorA efflux pump in Staphylococcus aureus 1199 assessed as fold reduction in ethidium bromide MIC at […] measured at every 3 mins interval for 30 mins by fluorescence analysis; conditions: 12.5 ug/ml
[6] = biological target: T1, Quinolone resistance protein NorA (Staphylococcus aureus); test: Inhibition of NorA efflux pump overexpressed in Staphylococcus aureus 1199B assessed as fold reduction in ethidium bromide MIC at 12.5 ug/ml measured at every 3 mins interval for 30 mins by fluorescence analysis
[7] = system: Staphylococcus aureus; test: Antibacterial activity against wild-type Staphylococcus aureus 1199 expressing NorA efflux pump measured at every 3 mins interval for 30 mins by fluorescence analysis; format: functional
[8] = system: Staphylococcus aureus; test: Antibacterial activity against Staphylococcus aureus 1199B overexpressing NorA efflux pump measured at every 3 mins interval for 30 mins by fluorescence analysis; format: functional
[9] = biological target: T1, Quinolone resistance protein NorA (Staphylococcus aureus); test: Inhibition of NorA efflux pump overexpressed in Staphylococcus aureus 1199B assessed as concentration required for four-fold reduction in ethidium bromide MIC measured at every 3 mins interval for 30 mins by fluorescence analysis
[10] = biological target: T1, Quinolone resistance protein NorA (Staphylococcus aureus); test: Inhibition of NorA efflux pump overexpressed in Staphylococcus aureus 1199B assessed as increase in EtBr accumulation at 50 ug/ml measured after 30 mins by fluorescence analysis
[11] = biological target: T1, Quinolone resistance protein NorA (Staphylococcus aureus); test: Inhibition of NorA efflux pump overexpressed in Staphylococcus aureus 1199B assessed as reduction in EtBr efflux measured over 30 mins by fluorescence analysis
[12] = biological target: T1, Quinolone resistance protein NorA (Staphylococcus aureus); test: Potency index, ratio of SK-20 MEC to compound MEC for Staphylococcus aureus 1199B overexpressing NorA efflux pump assessed as concentration required for four-fold reduction in ciprofloxacin MIC

SMILES	fold change (FC) [1]	MEC [2] [µg/mL]	MIC [3] [µg/mL]	MEC [4] [µg/mL]	fold change (FC) [5]	fold change (FC) [6]	MIC [7] [µg/mL]	MIC [8] [µg/mL]	MEC [9] [µg/mL]	inhibition [10]	inhibition [11]	Ratio [12]
CCC(/C=C/C(=O)NCC1(CC(=O)OC)CCCCC1)=C\c1ccc2c(c1)OCO2	2	25	> 50	–	–	–	–	–	–	–	–	–
COC(=O)[C@@H](NC(=O)/C=C/C=C/c1ccc2c(c1)OCO2)C(C)(C)C	4	12.5	> 50	50	0	2	> 50	> 50	50	–	–	–
CCCCC(=O)NC1(CC(=O)NNc2ccccc2)CCN(C(=O)/C=C/C(=C/c2ccc3c(c2)OCO3)CC)CC1	4	6.25	> 50	12.5	4	8	> 50	> 50	3.12	Active	Dose-dependent effect	–
CCC(/C=C/C(=O)N1CCC[C@@H]1C(=O)OC)=C\c1ccc2c(c1)OCO2	16	3.12	> 50	25	2	4	> 50	> 50	3.12	Active	Dose-dependent effect	4
CCC(/C=C/C(=O)O)=C\c1ccc2c(c1)OCO2	0	> 50	> 50	–	–	–	–	–	–	–	–	–
CCC(/C=C/C(=O)N[C@@H](Cc1c[nH]c2ccccc12)C(=O)OC)=C\c1ccc2c(c1)OCO2	–	–	–	–	–	–	> 50	–	–	–	–	–
CCC(/C=C/C(=O)NC1(CC(=O)OC)CCCCC1)=C\c1ccc2c(c1)OCO2	2	50	> 50	–	–	–	–	–	–	–	–	–
CCC(/C=C/C(=O)N[C@@H](Cc1ccccc1)C(=O)OC)=C\c1ccc2c(c1)OCO2	2	25	> 50	> 50	2	4	> 50	> 50	6.25	–	–	–
O=C(O)/C=C/C=C/c1ccc2c(c1)OCO2 [PIPERIC ACID]	0	> 50	> 50	–	–	–	–	–	–	–	–	–
O=C(/C=C/C=C/c1ccc2c(c1)OCO2)N1CCCCC1 [PIPERINE]	0	> 50	> 50	> 50	0	2	> 50	> 50	–	–	–	–
COC(=O)CC1(CNC(=O)/C=C/C=C/c2ccc3c(c2)OCO3)CCCCC1	4	12.5	> 50	25	0	2	> 50	> 50	50	–	–	–
